Patent US20240309043A1, “THERAPEUTICALLY ACTIVE STEROIDAL DERIVATIVES” (Organon R&D Finland Ltd., priority 2017, published 2024)

How the values were obtained:
Format in all cases: biochemical
[1] = target: T1, recombinant human 17β-HSD1 (Homo sapiens, UniProt P14061); assay: Inhibition of recombinant human 17β-HSD1; conditions: inhibitor 100 nM; 30 nM estrone, 1 mM NADPH, 30 min RT
T1 construct: made in house; host or cells: Sd9 (Sf9) insect cells, baculovirus (Bac to Bac Expression System)
T1 sequence (P14061 1-328): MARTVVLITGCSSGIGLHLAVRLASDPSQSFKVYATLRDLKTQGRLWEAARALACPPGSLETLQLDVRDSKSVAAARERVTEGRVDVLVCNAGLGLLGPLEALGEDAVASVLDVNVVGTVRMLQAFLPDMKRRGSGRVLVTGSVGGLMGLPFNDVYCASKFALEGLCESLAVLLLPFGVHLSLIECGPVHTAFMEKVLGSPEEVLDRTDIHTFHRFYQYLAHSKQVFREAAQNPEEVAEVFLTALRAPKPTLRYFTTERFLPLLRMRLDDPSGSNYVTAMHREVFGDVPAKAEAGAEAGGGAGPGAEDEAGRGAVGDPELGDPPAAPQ
In short: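 Microsomes from Sf9 cells expressing human 17β-HSD1 (1 μg/ml) were incubated for 30 min at RT in 20 mM KH2PO4 pH 7.4 with 30 nM ³H-estrone, 1 mM NADPH and inhibitor at 1 μM or 0.1 μM (1% DMSO). Estrone-to-estradiol conversion was measured by radio-HPLC after TCA stop, and % inhibition was taken as 100 − % conversion.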

[2] = target: T2, recombinant human 17β-HSD2 (Homo sapiens, UniProt P37059); assay: Inhibition of recombinant human 17β-HSD2; conditions: inhibitor 1 μM; 50 nM estradiol, 1 mM NADH, 30 min RT
T2 construct: made in house; host or cells: Sd9 (Sf9) insect cells, baculovirus (Bac to Bac Expression System)
T2 sequence (P37059 1-387): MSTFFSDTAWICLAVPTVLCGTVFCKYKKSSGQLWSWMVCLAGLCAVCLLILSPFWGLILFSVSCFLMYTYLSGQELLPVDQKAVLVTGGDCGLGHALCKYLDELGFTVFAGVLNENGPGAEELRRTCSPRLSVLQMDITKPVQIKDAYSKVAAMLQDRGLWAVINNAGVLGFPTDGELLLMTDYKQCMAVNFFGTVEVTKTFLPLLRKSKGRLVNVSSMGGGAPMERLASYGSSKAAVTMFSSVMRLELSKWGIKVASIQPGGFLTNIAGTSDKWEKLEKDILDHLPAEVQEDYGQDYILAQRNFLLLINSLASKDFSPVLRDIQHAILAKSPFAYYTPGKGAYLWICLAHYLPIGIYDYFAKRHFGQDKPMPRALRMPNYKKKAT
In short: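 Sf9 baculovirus-expressed enzyme membrane extract (4 μg/ml) incubated 30 min at RT in 20 mM KH2PO4 pH 8.5 with 50 nM estradiol (³H-tracer) and 1 mM NADH, inhibitor at 1 μM or 0.1 μM, 1% DMSO. TCA-stopped; estradiol-to-estrone conversion by radio-HPLC, % inhibition = 100 − % conversion.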

[3] = system: HSD1 enzyme that is expressed in rabbit placenta tissue; assay: Inhibition of E1 to E2 conversion in rabbit placenta tissue homogenate; conditions: for Rabbit placenta inhibition % @100 nM: inhibitor 100 nM, 30 nM estrone, 30 min

Compound | inhibition at 0.1 µM [1] [%] | inhibition at 1 µM [2] [%] | Rabbit placenta inhibition % @100 nM [3] [%] | Rabbit placenta inhibition % @1000 nM ([3]; inhibitor 1000 nM) [% @] | HSD1 inhibition % @100 nM [1] [%] | HSD2 inhibition % @1 μM [2] [%]
Cc1ccnc(NC(=O)CC[C@@H]2C/C(=N\O)[C@@]3(C)CCC4c5cccc(F)c5CCC4C23)c1 (stereo partly drawn) [Compound 130, 3-((13S,15R,E)-4-fluoro-17-(hydroxyimino)-13-methyl-7,8,9,11,12,13,14,15,16,17-decahydro-6H-cyclopenta[a]phenanthren-15-yl)-N-(4-methylpyridin-2-yl)propanamide] | 92 | 14 | 40 |  |  | 
COc1ccnc(NC(=O)CC[C@@H]2C/C(=N\O)[C@@]3(C)CCC4c5cccc(F)c5CCC4C23)c1 (stereo partly drawn) [Compound 132, 3-((13S,15R,E)-4-fluoro-17-(hydroxyimino)-13-methyl-7,8,9,11,12,13,14,15,16,17-decahydro-6H-cyclopenta[a]phenanthren-15-yl)-N-(4-methoxypyridin-2-yl)propanamide] | 87 | 6 | 27 |  |  | 
Cc1cc(NC(=O)CC[C@@H]2C/C(=N\O)[C@@]3(C)CCC4c5ccc(F)cc5CCC4C23)no1 (stereo partly drawn) [Compound 134, 3-((13S,15R,E)-3-fluoro-17-(hydroxyimino)-13-methyl-7,8,9,11,12,13,14,15,16,17-decahydro-6H-cyclopenta[a]phenanthren-15-yl)-N-(5-methylisoxazol-3-yl)propanamide] | 75 | -3 | 46 |  |  | 
C[C@]12CCC3c4cccc(F)c4CCC3C1[C@H](CCC(=O)N1CCOCC1)C/C2=N\O (stereo partly drawn) [Compound 136, 3-((13S,15R,E)-4-fluoro-17-(hydroxyimino)-13-methyl-7,8,9,11,12,13,14,15,16,17-decahydro-6H-cyclopenta[a]phenanthren-15-yl)-1-morpholinopropan-1-one] | 39 | -1 | 18 |  |  | 
C[C@]12CCC3c4cccc(F)c4CCC3C1[C@H](CCC(=O)Nc1cc(F)ccn1)C/C2=N\O (stereo partly drawn) [Compound 140, 3-((13S,15R,E)-4-fluoro-17-(hydroxyimino)-13-methyl-7,8,9,11,12,13,14,15,16,17-decahydro-6H-cyclopenta[a]phenanthren-15-yl)-N-(4-fluoropyridin-2-yl)propanamide] | 86 | 6 | 24 |  |  | 
C[C@]12CCC3c4cccc(F)c4CCC3C1[C@H](CCC(=O)Nc1ncccc1F)C/C2=N\O (stereo partly drawn) [Compound 142, 3-((13S,15R,E)-4-fluoro-17-(hydroxyimino)-13-methyl-7,8,9,11,12,13,14,15,16,17-decahydro-6H-cyclopenta[a]phenanthren-15-yl)-N-(3-fluoropyridin-2-yl)propanamide] | 93 | -1 | 34 |  |  | 
C[C@]12CCC3c4cccc(F)c4CCC3C1[C@H](CCC(=O)Nc1cccc(F)n1)C/C2=N\O (stereo partly drawn) [Compound 144, 3-((13S,15R,E)-4-fluoro-17-(hydroxyimino)-13-methyl-7,8,9,11,12,13,14,15,16,17-decahydro-6H-cyclopenta[a]phenanthren-15-yl)-N-(6-fluoropyridin-2-yl)propanamide] | 74 | 10 | 24 |  |  | 
C[C@]12CCC3c4cccc(F)c4CCC3C1[C@H](CCC(=O)Nc1ncc(F)cc1F)C/C2=N\O (stereo partly drawn) [Compound 146, N-(3,5-difluoropyridin-2-yl)-3-((13S,15R,E)-4-fluoro-17-(hydroxyimino)-13-methyl-7,8,9,11,12,13,14,15,16,17-decahydro-6H-cyclopenta[a]phenanthren-15-yl)propanamide] | 92 | 8 |  | 63 |  | 
C[C@]12CCC3c4cccc(F)c4CCC3C1[C@H](CCC(=O)Nc1ccc(C#N)cn1)C/C2=N\O (stereo partly drawn) [Compound 148, N-(5-cyanopyridin-2-yl)-3-((13S,15R,E)-4-fluoro-17-(hydroxyimino)-13-methyl-7,8,9,11,12,13,14,15,16,17-decahydro-6H-cyclopenta[a]phenanthren-15-yl)propanamide] | 90 | 9 | 35 |  |  | 
C[C@]12CCC3c4ccc(F)cc4CCC3C1[C@H](CCC(=O)Nc1ncccc1F)C/C2=N\O (stereo partly drawn) [Compound 150a, 3-((13S,15R,E)-3-fluoro-17-(hydroxyimino)-13-methyl-7,8,9,11,12,13,14,15,16,17-decahydro-6H-cyclopenta[a]phenanthren-15-yl)-N-(3-fluoropyridin-2-yl)propanamide] | 74 | 0 | 10 |  |  | 
C[C@]12CCC3c4ccc(F)cc4CCC3C1[C@H](CCC(=O)Nc1ncccc1F)C/C2=N/O (stereo partly drawn) [Compound 150b, 3-((13S,15R,Z)-3-fluoro-17-(hydroxyimino)-13-methyl-7,8,9,11,12,13,14,15,16,17-decahydro-6H-cyclopenta[a]phenanthren-15-yl)-N-(3-fluoropyridin-2-yl)propanamide] | 30 | 6 | 3 |  |  | 
C[C@]12CCC3c4ccc(F)cc4CCC3C1[C@H](CCC(=O)Nc1ncc(F)cc1F)C/C2=N\O (stereo partly drawn) [Compound 152, N-(3,5-difluoropyridin-2-yl)-3-((13S,15R,E)-3-fluoro-17-(hydroxyimino)-13-methyl-7,8,9,11,12,13,14,15,16,17-decahydro-6H-cyclopenta[a]phenanthren-15-yl)propanamide] | 56 | 2 | 6 |  |  | 
C[C@]12CCC3c4ccc(F)cc4CCC3C1[C@H](CCC(=O)Nc1ccc(N3CCOCC3)cn1)C/C2=N\O (stereo partly drawn) [Compound 154, 3-((13S,15R,E)-3-fluoro-17-(hydroxyimino)-13-methyl-7,8,9,11,12,13,14,15,16,17-decahydro-6H-cyclopenta[a]phenanthren-15-yl)-N-(5-morpholinopyridin-2-yl)propanamide] | 83 | 7 | 38 |  |  | 
C[C@]12CCC3c4ccc(Cl)cc4CCC3C1[C@H](CCC(=O)Nc1cc(F)ccn1)C/C2=N\O (stereo partly drawn) [Compound 156, 3-((13S,15R,E)-3-chloro-17-(hydroxyimino)-13-methyl-7,8,9,11,12,13,14,15,16,17-decahydro-6H-cyclopenta[a]phenanthren-15-yl)-N-(4-fluoropyridin-2-yl)propanamide] | 47 | 10 | 3 |  |  | 
C[C@]12CCC3c4ccccc4CCC3C1[C@H](CCC(=O)Nc1cc(F)ccn1)C/C2=N\O (stereo partly drawn) [Compound 158, N-(4-fluoropyridin-2-yl)-3-((13S,15R,E)-17-(hydroxyimino)-13-methyl-7,8,9,11,12,13,14,15,16,17-decahydro-6H-cyclopenta[a]phenanthren-15-yl)propanamide] | 36 | 4 | 12 |  |  | 
C[C@]12CCC3c4ccccc4CCC3C1[C@H](CCC(=O)Nc1ncccc1F)C/C2=N\O (stereo partly drawn) [Compound 160, N-(3-fluoropyridin-2-yl)-3-((13S,15R,E)-17-(hydroxyimino)-13-methyl-7,8,9,11,12,13,14,15,16,17-decahydro-6H-cyclopenta[a]phenanthren-15-yl)propanamide] | 66 | 5 | 10 |  |  | 
C[C@]12CCC3c4ccc(Cl)cc4CCC3C1[C@H](CCC(=O)Nc1ncccc1F)C/C2=N\O (stereo partly drawn) [Compound 162, 3-((13S,15R,E)-3-chloro-17-(hydroxyimino)-13-methyl-7,8,9,11,12,13,14,15,16,17-decahydro-6H-cyclopenta[a]phenanthren-15-yl)-N-(3-fluoropyridin-2-yl)propanamide] |  |  | 7 |  | 44 | 10
